Test results taken from PubChem BioAssay (NCI).
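Tested at 5 concentrations; 48 h exposure; 96-well plates; endpoints linearly interpolated, else capped at highest concentration. TGI marks complete inhibition of growth.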

Legend:
Test in all cases: NCI tumour cell line growth inhibition, 48 h
UACC-257 melanoma = test system: UACC-257 melanoma
SNB-19 CNS = test system: SNB-19 CNS
SF-268 CNS = test system: SF-268 CNS
MDA-N = test system: MDA-N
HCT-116 colon = test system: HCT-116 colon
RPMI-8226 leukemia = test system: RPMI-8226 leukemia
MCF7 breast = test system: MCF7 breast
BT-549 breast = test system: BT-549 breast
NCI-H23 lung = test system: NCI-H23 lung
OVCAR-3 ovarian = test system: OVCAR-3 ovarian
M14 melanoma = test system: M14 melanoma
OVCAR-8 ovarian = test system: OVCAR-8 ovarian
NCI-H460 lung = test system: NCI-H460 lung
SW-620 colon = test system: SW-620 colon
COLO 205 colon = test system: COLO 205 colon
786-0 renal = test system: 786-0 renal
OVCAR-4 ovarian = test system: OVCAR-4 ovarian
TK-10 renal = test system: TK-10 renal
MALME-3M melanoma = test system: MALME-3M melanoma
SK-MEL-5 melanoma = test system: SK-MEL-5 melanoma
IGROV1 ovarian = test system: IGROV1 ovarian
SK-MEL-2 melanoma = test system: SK-MEL-2 melanoma
MOLT-4 leukemia = test system: MOLT-4 leukemia
SN12C renal = test system: SN12C renal
MDA-MB-435 = test system: MDA-MB-435
NCI-H522 lung = test system: NCI-H522 lung
ACHN renal = test system: ACHN renal
PC-3 prostate = test system: PC-3 prostate
OVCAR-5 ovarian = test system: OVCAR-5 ovarian
EKVX NSCLC = test system: EKVX NSCLC
HL-60(TB) leukemia = test system: HL-60(TB) leukemia
MDA-MB-231 breast = test system: MDA-MB-231 breast
A549 NSCLC = test system: A549 NSCLC
A498 renal = test system: A498 renal
CAKI-1 renal = test system: CAKI-1 renal
HOP-92 NSCLC = test system: HOP-92 NSCLC
CCRF-CEM leukemia = test system: CCRF-CEM leukemia
HCT-15 colon = test system: HCT-15 colon
SK-MEL-28 melanoma = test system: SK-MEL-28 melanoma
U251 CNS = test system: U251 CNS
LOX IMVI melanoma = test system: LOX IMVI melanoma
HCC-2998 colon = test system: HCC-2998 colon
SNB-75 CNS = test system: SNB-75 CNS
NCI/ADR-RES ovarian = test system: NCI/ADR-RES ovarian
HOP-62 NSCLC = test system: HOP-62 NSCLC
UO-31 renal = test system: UO-31 renal
K-562 leukemia = test system: K-562 leukemia
HT29 colon = test system: HT29 colon
KM12 colon = test system: KM12 colon
T-47D breast = test system: T-47D breast
SF-295 CNS = test system: SF-295 CNS
SK-OV-3 ovarian = test system: SK-OV-3 ovarian
DU-145 prostate = test system: DU-145 prostate
UACC-62 melanoma = test system: UACC-62 melanoma
RXF 393 renal = test system: RXF 393 renal
HS 578T breast = test system: HS 578T breast
NCI-H226 lung = test system: NCI-H226 lung
SF-539 CNS = test system: SF-539 CNS

Work on `O=C1/C(=C/c2ccc(Cl)cc2)N=C(c2ccccc2)N1c1nc2ccc(Sc3ccccc3)cc2[nH]1` yielded a TGI (UACC-257 melanoma) of 55.8 µM, a TGI (SNB-19 CNS) of over 100 µM and a TGI (SF-268 CNS) of over 100 µM. The TGI (MDA-N) was 27.7 µM, the TGI (HCT-116 colon) was 62.3 µM and the TGI (RPMI-8226 leukemia) was 55.7 µM. The TGI (MCF7 breast) was 63.5 µM, the TGI (BT-549 breast) was 57.7 µM and the TGI (NCI-H23 lung) was over 100 µM. For the same molecule, the TGI (OVCAR-3 ovarian) was over 100 µM, the TGI (M14 melanoma) was 35.1 µM and the TGI (OVCAR-8 ovarian) was over 100 µM. The TGI (NCI-H460 lung) was 61.8 µM, the TGI (SW-620 colon) was 80.8 µM and the TGI (COLO 205 colon) was 33.8 µM. It also gave a TGI (786-0 renal) of 64.6 µM, a TGI (OVCAR-4 ovarian) of over 100 µM and a TGI (TK-10 renal) of 59.6 µM. The TGI (MALME-3M melanoma) was 58.9 µM, the TGI (SK-MEL-5 melanoma) was 29.2 µM and the TGI (IGROV1 ovarian) was over 100 µM. For the same molecule, the TGI (SK-MEL-2 melanoma) was 31.6 µM, the TGI (MOLT-4 leukemia) was 87.6 µM and the TGI (SN12C renal) was over 100 µM. It also gave a TGI (MDA-MB-435) of 27.1 µM, a TGI (NCI-H522 lung) of 54.3 µM and a TGI (ACHN renal) of over 100 µM. The TGI (PC-3 prostate) was over 100 µM, the TGI (OVCAR-5 ovarian) was over 100 µM and the TGI (EKVX NSCLC) was over 100 µM. The TGI (HL-60(TB) leukemia) was 35.6 µM, the TGI (MDA-MB-231 breast) was 90.1 µM and the TGI (A549 NSCLC) was over 100 µM. For the same molecule, the TGI (A498 renal) was 72.3 µM, the TGI (CAKI-1 renal) was over 100 µM and the TGI (HOP-92 NSCLC) was over 100 µM. The TGI (CCRF-CEM leukemia) was 87 µM, the TGI (HCT-15 colon) was over 100 µM and the TGI (SK-MEL-28 melanoma) was 72.7 µM. The TGI (U251 CNS) was 84.7 µM, the TGI (LOX IMVI melanoma) was 61.9 µM and the TGI (HCC-2998 colon) was 31.4 µM. For the same molecule, the TGI (SNB-75 CNS) was 60.2 µM, the TGI (NCI/ADR-RES ovarian) was 75.5 µM and the TGI (HOP-62 NSCLC) was over 100 µM. It also gave a TGI (UO-31 renal) of over 100 µM, a TGI (K-562 leukemia) of 61.8 µM and a TGI (HT29 colon) of 40 µM. It also gave a TGI (KM12 colon) of 81.2 µM, a TGI (T-47D breast) of over 100 µM and a TGI (SF-295 CNS) of 87.1 µM. For the same molecule, the TGI (SK-OV-3 ovarian) was over 100 µM, the TGI (DU-145 prostate) was over 100 µM and the TGI (UACC-62 melanoma) was 29.8 µM. For the same molecule, the TGI (RXF 393 renal) was over 100 µM and the TGI (HS 578T breast) was 91.4 µM.
Work on `C=C1C(=O)C23CC1CCC2C12CO[C@H](O)[C@H]1C(C)(C)[C@H](OC(C)=O)C[C@H]2OC3=O` (stereo partly specified) yielded a TGI (UACC-257 melanoma) of over 100 µM, a TGI (SNB-19 CNS) of over 100 µM and a TGI (SF-268 CNS) of 34.2 µM. For the same molecule, the TGI (MDA-N) was 30.6 µM, the TGI (HCT-116 colon) was 28 µM and the TGI (RPMI-8226 leukemia) was over 100 µM. For the same molecule, the TGI (MCF7 breast) was 32.4 µM, the TGI (BT-549 breast) was 21.9 µM and the TGI (NCI-H23 lung) was over 100 µM. For the same molecule, the TGI (OVCAR-3 ovarian) was 55.2 µM, the TGI (M14 melanoma) was 53.2 µM and the TGI (OVCAR-8 ovarian) was over 100 µM. It also gave a TGI (NCI-H460 lung) of over 100 µM, a TGI (SW-620 colon) of 30.5 µM and a TGI (COLO 205 colon) of 28.8 µM. For the same molecule, the TGI (786-0 renal) was 29.9 µM, the TGI (OVCAR-4 ovarian) was over 100 µM and the TGI (TK-10 renal) was 28.5 µM. For the same molecule, the TGI (MALME-3M melanoma) was 28.1 µM, the TGI (SK-MEL-5 melanoma) was 77.1 µM and the TGI (IGROV1 ovarian) was over 100 µM. The TGI (SK-MEL-2 melanoma) was 31.1 µM, the TGI (MOLT-4 leukemia) was 82.2 µM and the TGI (SN12C renal) was 46.2 µM. For the same molecule, the TGI (MDA-MB-435) was 44.8 µM, the TGI (NCI-H522 lung) was 3.63 µM and the TGI (ACHN renal) was 29.6 µM. It also gave a TGI (PC-3 prostate) of over 100 µM, a TGI (NCI-H226 lung) of over 100 µM and a TGI (OVCAR-5 ovarian) of 33.3 µM. The TGI (EKVX NSCLC) was 29.1 µM, the TGI (HL-60(TB) leukemia) was 87.9 µM and the TGI (MDA-MB-231 breast) was 37.2 µM. For the same molecule, the TGI (A549 NSCLC) was over 100 µM, the TGI (CAKI-1 renal) was 28.8 µM and the TGI (SF-539 CNS) was 41.7 µM. For the same molecule, the TGI (HOP-92 NSCLC) was 22.2 µM, the TGI (CCRF-CEM leukemia) was over 100 µM and the TGI (HCT-15 colon) was 28.8 µM. The TGI (SK-MEL-28 melanoma) was 33.2 µM, the TGI (U251 CNS) was over 100 µM and the TGI (LOX IMVI melanoma) was 33.7 µM. The TGI (HCC-2998 colon) was 54.2 µM, the TGI (SNB-75 CNS) was over 100 µM and the TGI (NCI/ADR-RES ovarian) was over 100 µM. It also gave a TGI (UO-31 renal) of 67.7 µM, a TGI (K-562 leukemia) of over 100 µM and a TGI (HT29 colon) of 27.1 µM. The TGI (KM12 colon) was over 100 µM, the TGI (T-47D breast) was 40.5 µM and the TGI (SF-295 CNS) was over 100 µM. For the same molecule, the TGI (SK-OV-3 ovarian) was over 100 µM, the TGI (DU-145 prostate) was 83.3 µM and the TGI (UACC-62 melanoma) was 28.9 µM. It also gave a TGI (HS 578T breast) of over 100 µM.
